Experimental data as given in patent US20090124608A1, “CB2 Receptor Modulators In Neurodegenerative Diseases And Applications Of The Same” (priority 2006, published 2009).
“Also recorded” adds a separate entry of the source.

Assays:
[1] = test system: cannabinoid receptors; test: GTPγS binding in end stage spinal cord homogenates from G93A-SOD1 mice, separated by gender; assay type: biochemical, mouse; conditions: for 2-AG stimulated G-protein activation remaining on co-incubation with CB2 ligand / HU-210 stimulated G-protein activation remaining on co-incubation with CB2 ligand: ligand 1 μM
Experimental: (§1) [^35S]GTPγS binding assays were performed as described previously (Prather et al. 2000a) in a buffer containing 20 mM Hepes, 100 mM NaCl, and 10 mM MgCl2 at pH 7.4. Each binding reaction contained 10 μg of spinal cord membrane protein, the presence or absence of cannabinoid ligands (see following), plus 0.1 nM [^35S]GTPγS (1250 Ci/mmol, Perkin Elmer Life and Analytical Sciences) and […] of GDP to suppress basal G-protein activation. Reactions were incubated for 2 hrs at 30 °C. Non-specific binding was defined by binding observed in the presence of 10 μM of non-radioactive GTPγS. The reaction was terminated by rapid vacuum filtration through glass fiber filters followed by two washes with ice-cold assay buffer. 4 mL of scintiverse® (Fisher Scientific) was added to the filters and radioactivity quantified by scintillation counting.
Harvested spinal cords from the vehicle treated control groups at the end-stage of their disease were separated by gender and used to conduct GTP7S binding experiments, which measure the capability of a ligand to promote or suppress G-protein activation.
It was next determined if the selective CB2 ligands antagonize G-protein activation produced by an endocannabinoid such as 2-AG as well.

[2] = test system: CB1 and CB2 receptors; test: [35S]GTPγS binding with selective agonists in mouse spinal cord membranes; assay type: biochemical; conditions: data not shown
Experimental: as §1
We initially attempted to compare CB 1 and CB2 receptor activation of G-proteins between WT-OE and G93A spinal cord membranes by conducting [^35S]GTPγS binding assays in the presence of selective agonists.

[3] = target: CB2 receptors (Homo sapiens, UniProt P34972); conditions: cited from earlier work
[4] = target: CB1 receptors; conditions: cited from earlier work; for Ki: literature value, read-out: Ki at CB1 receptors
[5] = Water solubility and dissolution in vehicles; conditions: for stable dissolution in tested vehicles: ethanol/water, glycerol, polyethylene glycol, high purity olive oil tested
[6] = test system: G93A-SOD1 mice; test: Survival of G93A mice, daily i.p. treatment initiated at symptom onset; assay type: in vivo, mouse; conditions: for survival improvement versus vehicle, females: female G93A mice; for survival improvement versus vehicle, females / survival improvement versus vehicle, males: 3 mg/kg for AM-1241 and AM630, JTE-907 dose not given; for survival improvement versus vehicle, males: male G93A mice
From the text: Hemizygous transgenic male mice with the G93A mutation of the human SOD1 gene (G1H/1) mutation (B6SJL-TgN (SOD1-G93A) 1 Gur) were obtained from Jackson Laboratories and were bred locally with female B6SJL mice (Jackson Laboratory), according to the protocol obtained from the vendor. To decrease the inherent variability in disease onset and survival with these mice, littermate transgenic males (rather than random males from several different litters) were selected to sire subsequent generations of mice.
Determination of symptom onset, randomization and drug treatment of G93A mice. Symptom onset was assessed by blinded observation of changes in hind limb gait; these changes are related to the mouse's inability to support its weight on its hind limbs. At onset, mice initially place their weight on the toes and then quickly fall to full foot placement (as opposed to healthy mice which walk and run on the hind toes); this “toe-to-heel” walking pattern produces an asymmetric gait between hind and fore limbs and a characteristic “wobbling” gait. Mouse groups were randomized based on symptom onset and alternately placed in control and treated groups, e.g., the first mouse to develop hind limb weakness was placed in the control group, the second was injected with test compound and placed in the treatment group, and so on. […] By definition, the onset administration paradigm employed was focused on what we term the “survival interval”—namely the time from onset to end-stage sacrifice.
Mice were sacrificed when any of the following criteria were met: (1) inability to right themselves within 30 seconds when placed on their sides; (2) inability to eat or drink, or move toward food and water placed in low-rimmed dishes on cage floor; (3) loss of more than 10% of total body weight in 24 hours; (4) gross loss of grooming behavior; or (5) labored breathing. Criteria for death were confirmed by a second investigator who is blinded to the group identity of each mouse. The age of symptom onset was subtracted from the age at death for each mouse, and a mean survival interval was calculated for each group. By calculating the ratio of the survival interval of treated groups to the survival interval of untreated littermate controls, a X-fold increase in survival was readily determined.
The effect of chronic administration of cannabinoids on the survival of G93A mice was next examined (FIG. 4). […] The number of days between symptom onset and animal sacrifice was measured (e.g., survival interval). In humans, this is analogous to the time between diagnosis of ALS and death, ranging from 2-5 years.

[7] = test system: G93A-SOD1 mice; test: Motor function test (clinging to perpendicular wire mesh screen for 60 seconds) in G93A mice; assay type: in vivo, mouse; conditions: for improvement in motor function versus vehicle, females: female G93A mice; for improvement in motor function versus vehicle, females / improvement in motor function versus vehicle, males: time to loss of ability to cling 60 seconds; for interval between mean loss of motor function and death, females: female mice, vehicle 19.0 days; for improvement in motor function versus vehicle, males: male G93A mice; for interval between mean loss of motor function and death, males: male mice, vehicle 20.5 days
Experimental: Beginning on the first day of observing symptoms, mice were tested for motor function biweekly until sacrifice. Motor function testing was initiated by gently placing animals on a horizontal wire mesh screen. The screen was slowly rotated to be perpendicular to the ground (90°). The duration that mice were able to hang onto the perpendicular wire mesh up to a maximum of 120 seconds was recorded. Because vehicle treated mice on average lost the ability to cling to the wire mesh for 60 seconds in the middle of their survival curve, this “all or none” response was utilized to compare motor function across all treatment groups. Kaplan-Meier time-to-event statistics were employed to analyze the data. The event was defined as the number of days after symptom onset that each individual animal was no longer able to cling to the wire mesh screen for 60 seconds.
Testing twice a week for the duration of the study provided a quantifiable decline during disease progression. Mice were placed on a horizontal wire mesh screen that was gently inverted to 90°. Kaplan-Meier time-to-event curves were used to analyze the data. The event was defined as the day each animal was no longer able to cling to the perpendicular screen for 60 seconds. […] The disparity between male and female motor function was paralleled by the interval between survival for the genders. Male mice survived an average of 39.6±2.0 (FIG. 6a) days past the onset of symptoms, while females lived 9 days longer than males (p<0.0018*, FIG. 6b). For males and females, loss of motor function preceded death by 20.5 (p<0.0002***) and 19.0 days (p<0.0028**), respectively.

[8] = test system: CB1/CB2 receptors; test: [35S]GTPγS binding, selective antagonism of HU-210, WT-OE spinal cord membranes; assay type: biochemical, mouse
[9] = test system: CB1/CB2 receptors; test: [35S]GTPγS binding, selective antagonism of HU-210, G93A spinal cord membranes; assay type: biochemical, mouse
[10] = G93A mice, i.p. daily from onset, 3.0 mg/kg
[11] = daily injections initiated at symptom onset
[12] = female homogenates, HU-210 100 nM
[13] = male homogenates, HU-210 100 nM
[14] = WT-OE spinal cord membranes, HU-210 100 nM, antagonist 3 μM

Chain of CB2 receptors (P34972 whole entry): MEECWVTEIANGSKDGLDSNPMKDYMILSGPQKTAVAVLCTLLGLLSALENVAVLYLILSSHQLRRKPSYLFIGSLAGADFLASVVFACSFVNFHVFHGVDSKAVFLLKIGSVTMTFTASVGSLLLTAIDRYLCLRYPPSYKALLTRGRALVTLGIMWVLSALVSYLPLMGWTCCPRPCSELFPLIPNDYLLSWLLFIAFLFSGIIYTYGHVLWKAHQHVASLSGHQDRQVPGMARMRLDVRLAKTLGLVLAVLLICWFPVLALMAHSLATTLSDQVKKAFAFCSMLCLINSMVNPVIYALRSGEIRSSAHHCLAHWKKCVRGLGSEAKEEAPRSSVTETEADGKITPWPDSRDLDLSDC

CCCCCC=CCC=CCC=CCC=CCCCC(=O)OC(CO)CO [2-AG, (5Z,8Z,11Z, 14Z)-5,8,11,14-Eicosatetraenoic acid, 2-hydroxy-1-(hydroxymethyl) ethyl ester]
[35S]GTPγS binding to G-proteins produced by agonist ([1]; female spinal cord homogenate, 2-AG 3 μM): 29.93±3.3 fmole/mg protein
Emax of G-protein activation ([1]; female transgenic spinal cord): 17.81±1.89
[35S]GTPγS binding to G-proteins produced by agonist ([1]; male spinal cord homogenate, 2-AG 3 μM): 31.30±1.7 fmole/mg protein
Emax of G-protein activation ([1]; male transgenic spinal cord): 23.21±5.82

CCCCC/C=C\C/C=C\C/C=C\C/C=C\CCCC(=O)NCCCl [ACEA, (all Z)-N-(2-cycloethyl)-5,8,11,14-eicosatetraenamide]
G-protein activation by selective agonist [2]: failed attempts to demonstrate consistent, measurable G-protein activation; also recorded: unable to demonstrate consistent, measurable G-protein activation

Cc1c(C(=O)NN2CCCCC2)nn(-c2ccc(Cl)cc2Cl)c1-c1ccc(I)cc1 [AM-251, N-(Piperidin-1-yl)-5-(4-iodophenyl)-1-(2,4-dichlorophenyl)-4-methyl-1H-pyrazole-3-carboxamide]
affinity at CB2 receptors weaker than at CB1 ([3]; Gatley et al. 1997): over 300 fold
Ki [4]: ~7 nM

COc1ccc(C(=O)c2c(C)n(CCN3CCOCC3)c3cc(I)ccc23)cc1 [AM-630]
water solubility [5]: very poor water solubility
stable dissolution in tested vehicles [5]: achieved only with olive oil
Survival Interval Ratio (SIR) [6, 10]: 2.30
Total Life-Span Ratio (TLR) [6, 10]: 1.27
survival compared with AM-1241 treated mice ([6]; G93A-SOD1 mice): survived twice as long as those mice treated with AM-1241
extension of total life-span versus controls [6, 11]: 27%
living longer after symptom onset than controls (survival interval increase) [6, 11]: 130%
survival improvement versus vehicle, females [6]: 8%
survival improvement versus vehicle, males [6]: 27%
effect on survival of G93A-SOD1 mice ([6]; treatment initiated at symptom onset): pronounced increase in survival
Ki ([3]; literature value, read-out: Ki at CB2 receptors): ~20 nM
affinity for CB1 receptors less than for CB2 ([4]; Hosohata et al. 1997): more than 165 fold
improvement in motor function versus vehicle, females [7]: 48%
interval between mean loss of motor function and death, females [7]: 8.7 days
improvement in motor function versus vehicle, males [7]: 64%
interval between mean loss of motor function and death, males [7]: 18.9 days
2-AG stimulated G-protein activation remaining on co-incubation with CB2 ligand ([1]; female homogenate, 2-AG 3 μM): 8.49±3.7 fmole/mg protein
HU-210 stimulated G-protein activation remaining on co-incubation with CB2 ligand [1, 12]: 17.76±3.3 fmole/mg protein
2-AG stimulated G-protein activation remaining on co-incubation with CB2 ligand ([1]; male homogenate, 2-AG 3 μM): 6.66±3.9 fmole/mg protein
HU-210 stimulated G-protein activation remaining on co-incubation with CB2 ligand [1, 13]: 21.02±5.6 fmole/mg protein

CCCCCCC(C)(C)c1cc(O)c2c(c1)OC(C)(C)[C@@H]1CC=C(CO)C[C@@H]21 [HU-210, (−)-11-Hydroxy-delta(8)-tetrahydrocannabinol-dimethylheptyl]
Ki [4]: ~0.5 nM
[35S]GTPγS binding to G-proteins produced by agonist ([1]; female spinal cord homogenates, HU-210 100 nM): 40.59±8.5 fmole/mg protein
[35S]GTPγS binding to G-proteins produced by agonist ([1]; male spinal cord homogenates, HU-210 100 nM): 35.51±5.6 fmole/mg protein
[35S]GTPγS binding to G-proteins produced by agonist ([8]; WT-OE spinal cord membranes, HU-210 100 nM): 30.7±6.2 fmole/mg protein
[35S]GTPγS binding to G-proteins produced by agonist ([9]; G93A spinal cord membranes, HU-210 100 nM): 57.4±4.4 fmole/mg protein

CCCCCOc1c(OC)ccc2cc(C(=O)NCc3ccc4c(c3)OCO4)c(=O)[nH]c12 [JTE-907]
water solubility [5]: very poor water solubility
stable dissolution in tested vehicles [5]: achieved only with olive oil
survival improvement versus vehicle, females [6]: 25%
survival improvement versus vehicle, males [6]: did not live significantly longer
improvement in motor function versus vehicle, females [7]: 92%
interval between mean loss of motor function and death, females [7]: 4 days
improvement in motor function versus vehicle, males [7]: 61%
interval between mean loss of motor function and death, males [7]: 10.7 days
reduction of HU-210 induced G-protein activation (CB2 receptor antagonism) ([1]; female homogenate): 31.34 fmole/mg protein
2-AG stimulated G-protein activation remaining on co-incubation with CB2 ligand ([1]; female homogenate, 2-AG 3 μM): 5.96±0.97 fmole/mg protein
HU-210 stimulated G-protein activation remaining on co-incubation with CB2 ligand [1, 12]: 9.25±1.2 fmole/mg protein
reduction of HU-210 induced G-protein activation (CB2 receptor antagonism) ([1]; male homogenate): 12.31 fmole/mg protein
2-AG stimulated G-protein activation remaining on co-incubation with CB2 ligand ([1]; male homogenate, 2-AG 3 μM): 18.14±2.1 fmole/mg protein
HU-210 stimulated G-protein activation remaining on co-incubation with CB2 ligand [1, 13]: 23.3 fmole/mg protein

Cc1c(C(=O)c2cccc3ccccc23)c2cccc3c2n1C(CN1CCOCC1)CO3 (stereo not drawn) [WIN-55,212-2, [2,3-Dihydro-5-methyl-3-[(morpholinyl)methyl]pyrrolo-[1,2,3-de]-1,4-benzoxazin-yl]-(1-naphthalenyl)methanone]
water solubility [5]: very poor water solubility
stable dissolution in tested vehicles [5]: achieved only with olive oil
increase in survival interval versus vehicle ([6]; 5 mg/kg daily i.p.): 8.8 days
survival interval (symptom onset to sacrifice) ([6]; 5 mg/kg daily i.p., vehicle 23.7+/−1.7 days): 32.5 ± 3.6 days

(−)-cis-3-[2-Hydroxy-4-(1,1-dimethylheptyl)-phenyl]-trans-4-(3-hydroxypropyl)-cyclohexanol) [CP-55,940]
Ki [4]: ~0.5 nM

N-[(1S)-endo-1,3,3-Trimethylbicyclo[2.2.1]heptan-2-yl]-5-(4-chloro-3-methylphenyl)-1-(4-ethoxybenzyl)-pyrazole-3-carboxamide [SR-144528]
net reduction of HU-210-induced G-protein activation ([8]; WT-OE membranes, antagonist 3 μM): 15.6 fmoles/mg protein
% blockade of HU-210-induced G-protein activation [8, 14]: approximately 50%
HU-210 stimulated [35S]GTPγS binding remaining on co-incubation with antagonist [8, 14]: 15.1±1.1 fmole/mg protein
% blockade of HU-210-induced G-protein activation [9]: 49%
HU-210 stimulated [35S]GTPγS binding remaining on co-incubation with antagonist [9]: 29.5±6.4 fmole/mg protein
net reduction of HU-210-induced G-protein activation [9]: 27.9 fmole/mg protein
